Patent publication EP3856749B1, “WATER-SOLUBLE, NON-AGGREGATED SILICON PHTALGCYANINE COMPOUND HAVING IN VITRO ANTICANCER EFFECT AGAINST CANCER TYPES OF LUNG, LIVER, BREST AND MELANOMA” (Karadeniz Teknik Universitesi, priority 2018, dated 2020)

What was measured:
[1] = test system: cervical cancer cell line (HeLa); details: cited from earlier work
[2] = test system: lung (A549) cancer cell lines; test: Cytotoxicity test (MTT), A549; type: cell-based, human; details: A549, 48 hours
Source text: (§1) Cytotoxic effects of test substances are testes by means of using human breast (BT-20), melanoma (SK-Mel 128), prostate (DU-145), liver (SNU-398) and lung (A549) cancer cell lines. Toxic effects of test substances on the healthy normal cells are studied on human fibroblast cells (HFC).
(§2) Cell suspension prepared from alpha-MEM having 10% FBS (Fetal Bovine Serum), fungizone and penicillin/streptomycin is distributed as 5×10^3 of cell in each well in the cell culture containers comprising 96 wells for the test. […] Cells are kept in a humid environment at 5% of CO2 at 37°C for 48 hours in the presence of the test substance, of which final densities are of 200-0.09 µg/mL. 10 µL from the MTT solution (3-[4,5-dimethyltioazol-2,5-diphenyltetrazolium bromide) prepared at a density of 5 mg/mL is added to each well so as to determine the cell generation rate at the end of incubation period. After culture containers are kept in the humid environment at 5% of CO2 at 37°C for 2 hours, the content is emptied and dimethyl sulphoxide (DMSO) is added in the value of 100 µL/well on cells so as to solubilize intracellular formazan crystals. After incubation for 30 minutes, the color intensity is measured in the wave length of 570/620 by means of ELISA Microplate Reader (Tecan, Sunrise).

[3] = test system: CT-DNA; test: UV-Vis absorption titration; type: binding; details: in the presence of CT-DNA; 5 mM Tris-HCl/50 mM NaCl (pH 7.2)
Description: Stock solutions of compounds are obtained by means of being solved in water and stored in a room temperature in darkness. Stock solutions of CT-DNA are prepared in 5 mM Tris-HCl buffer of 7.2 pH with 50 mM NaCl and stored at 4 °C for three days. At the end of this period, absorbance rates of 260 and 280 nm are calculated so as to determine rate of DNA impurity. […] Concentration of DNA is measured and calculated at 260 nm by using molar excitation coefficient of (ε) 6600 M^-1cm^-1. All studies with the interaction between compounds and CT-DNA are carried out in 5 mM Tris-HCl/50 mM NaCl (pH 7.2) by keeping stock solutions prepared in water at the stable concentration and changing CT-DNA concentration. While carrying out this process, absorbance of CT-DNA is eliminated by adding CT-DNA in an equal amount on the blind solution.
Variations in the absorbance intensity are presented in percent. %H = [(A1−A2)/(A1)] × 100 [formula]
A1: Maximum absorbance of the compound; A2: Absorbance of the compound subsequent to addition of DNA.

[4] = test system: breast (BT-20) cancer cell lines; test: Cytotoxicity test (MTT), BT-20; type: cell-based, human; details: BT20, 48 hours
Source text: as §1, §2

[5] = test system: supercoiled pBR322 plasmid DNA; test: Hydrolytic nuclease activity (agarose gel electrophoresis); type: biochemical; details: 7a 6.25-50 µM; 3a 12.5-100 µM; without light
Source text: (§3) Cleavage activities of supercoiled pBR322 plasmid DNA of the compounds are observed by means of using agarose-gel electrophoresis. When the supercoiled is exposed to pBR322 plasmid DNA electrophoresis, it is observed that the supercoiled form (Form I) migrates in the swiftest manner. In case of a cut occurred on a single chain, the supercoiled form creates a nicked form (Form II) moving in the slowest manner. In case both chains are cut, the linear form (Form III) migrating between Form I and Form II.
Total volume of reaction mixture contained 50 mM Tris-HCl (pH 7.0), supercoiled pBR322 plasmid DNA (250 ng), and different concentrations of compound. While the well content is loaded to 0.8 percent of agarose gel (comprising 0.25 µg/mL EB), gel loading dye also added and loaded to the gel. After addition of running buffer, it is exposed to electrophoresis by applying a current of 100 volt for 90 minutes.

[6] = test system: CT-DNA; test: Competitive EB binding experiment; details: EB (50 µM), CT-DNA (50 µM), pH 7.2
Description: It is observed in competitive EB binding studies of compounds how the wave length and absorbance, in which EB (50 µM) whose concentration is kept stable presents the maximum absorbance, vary with addition of CT-DNA (50 µM) and then with simultaneous addition of DNA and complex. This study is carried out in the buffer of 5 mM Tris-HCl/50 mM NaCl (pH 7.2).

[7] = test system: CT-DNA; test: Determination of DNA melting temperature; type: binding; details: absorbance at 260 nm; CT-DNA alone 75.57 °C
Description: Studies pertaining to determination of DNA melting temperature is carried out by means of Cary 100 Bio UV-Visible Spectrophotometer with Varian Cary Temperature Controller unit.
(§4) The absorbance is measured at 260 nm at every 0.5 °C in the range of 60-90 °C by increasing temperature of the cell comprising the basin by 1 °C every minute by means of employing thermal melting program. Values Tm are automatically calculated by the device from t(°C)-Absorbance curve of CT-DNA drawn in the presence and absence of the compound depending on its absorbance in 260 nm.
as §4, with “program of DNA melting temperature of the compound 3a.” for “program.”, “3a” for “the compound”, “nm. While the melting temperature of CT-DNA is at 75.57 °C, the melting temperature of the compounds CT-DNA + 3a is at 81.82 °C. An increase at the melting temperatures strengthens the potential that the compounds becomes an intercalative agents.” for “nm.”

[8] = molecular target: T1, topoisomerase I enzyme (Homo sapiens, UniProt P11387); test: Topoisomerase I inhibition (relaxation method); type: biochemical; details: 1 U Topo I, pBR322 plasmid DNA; 7a 12.5-37.5 µM; 3a 12.5-25 µM
T1 sequence (P11387 1-765): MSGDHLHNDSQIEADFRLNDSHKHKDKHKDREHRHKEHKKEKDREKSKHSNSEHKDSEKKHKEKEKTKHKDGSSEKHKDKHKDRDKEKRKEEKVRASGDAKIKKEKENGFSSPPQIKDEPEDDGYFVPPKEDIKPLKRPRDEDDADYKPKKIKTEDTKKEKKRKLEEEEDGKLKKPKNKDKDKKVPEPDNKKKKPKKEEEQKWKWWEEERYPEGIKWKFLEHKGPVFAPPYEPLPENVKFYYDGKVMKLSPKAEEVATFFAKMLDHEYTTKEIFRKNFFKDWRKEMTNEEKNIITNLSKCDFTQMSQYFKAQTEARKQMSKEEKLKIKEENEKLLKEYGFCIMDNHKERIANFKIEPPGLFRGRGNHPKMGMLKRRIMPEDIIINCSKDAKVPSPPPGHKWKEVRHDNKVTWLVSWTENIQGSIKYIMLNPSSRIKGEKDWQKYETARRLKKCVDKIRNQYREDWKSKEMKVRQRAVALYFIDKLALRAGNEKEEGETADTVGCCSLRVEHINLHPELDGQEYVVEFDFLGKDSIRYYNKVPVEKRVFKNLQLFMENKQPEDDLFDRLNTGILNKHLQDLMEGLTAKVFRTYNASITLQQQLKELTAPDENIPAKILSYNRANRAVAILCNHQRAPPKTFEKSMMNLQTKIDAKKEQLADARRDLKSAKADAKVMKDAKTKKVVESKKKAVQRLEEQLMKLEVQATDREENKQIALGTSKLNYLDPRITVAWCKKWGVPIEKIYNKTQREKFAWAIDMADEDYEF
Description: After incubation process, samples are loaded to 0.8 % of agarose gel, exposed to electrophoresis in the running buffer by applying 40 volt of current for 3 hours and forms obtained are observed on the agarose gel under UV light.

[9] = test system: pBR322 plasmid DNA; test: Determination of reactive oxygen types in photonuclease activity; type: biochemical; details: 3a (50 µM), stimulation with light
Description: Inhibition tests are performed in the presence of standard radical scavengers so as to determine active oxygen types effective on its cleavage in the presence of light on pBR322 plasmid DNA of complexes. For that purpose, it used ethanol (EtOH), methanol (MeOH) and dimethyl sulphoxide (DMSO) as hydroxyl radical scavenger; sodium azide and L-histidine as singlet oxygen scavenger; SOD as superoxide radical scavenger, EDTA as chelating agent and catalase as hydrogen peroxide adsorbent. It is also observed whether or not results obtained by using different types scavenging the same type of radicals support each other. Different reaction mixtures are formed by means of adding pBR322 plasmid DNA and complex in the efficient concentration and any one of above mentioned standard radical scavengers in variable concentrations into 50 mM Tris-HCl buffer. Subsequent to incubation of different reaction mixture formed at 37°C for an hour, it comprises the process of examining and monitoring these products. […]

[10] = test system: melanoma (SK-Mel 128) cancer cell lines; test: Cytotoxicity test (MTT), SK-Mel 128; type: cell-based, human; details: SK-MEL 128, 48 hours
Source text: as §1, §2

[11] = test system: liver (SNU-398) cancer cell lines; test: Cytotoxicity test (MTT), SNU-398; type: cell-based, human; details: SNU-398, 48 hours
Source text: as §1, §2

[12] = test system: prostate (DU-145) cancer cell lines; test: Cytotoxicity test (MTT), DU-145; type: cell-based, human; details: DU-145, 48 hours
Source text: as §1, §2

[13] = test system: supercoiled pBR322 plasmid DNA; test: Nuclease activity under irradiation (photonuclease); type: biochemical; details: for nuclease activity under irradiation: light for 15 minutes, 700 nm filter, increasing concentrations
Source text: as §3
It is used General Electric quartz lamb of 300 watts and optical filter of 700 nm for compounds illustrated as Formula I and II to light in the proper wave length so as to observe that the supercoiled pBR322 plasmid DNA is cleavage by the compounds and so as to evaluate usability potentials of the compounds in the photo-dynamic therapy. In this study, total volume of reaction mixture contained 50 mM Tris-HCl (pH 7.0), super-coiled pBR322 plasmid DNA (250 ng), and increasing concentrations of compounds. Afterwards, well contents are exposed to light for 15 minutes. At the end of this period, after mixtures are incubated in darkness at 37 °C for an hour, reactions are stopped by means of above-mentioned methods and cut products are observed on the agarose gel under UV light.

[14] = test system: topoisomerase II enzyme; test: Topoisomerase II inhibition (relaxation method); type: biochemical; details: 1 U Topo II, pBR322 plasmid DNA; 7a 12.5-37.5 µM; doxorubicin as standard
Description: After incubation process, samples are loaded to 0.8 % of agarose gel, exposed to electrophoresis in the running buffer by applying 40 volts of current for 3 hours and forms obtained are observed on the agarose gel under UV light.

[15] = test system: pBR322 plasmid DNA; test: Oxidative nuclease activity; type: biochemical; details: with oxidative agent (H2O2, AA, ME) under irradiation
Description: Auxiliary reagents are added to H2O2, AA, ME medium so as to examine oxidative cleavage activities of the compounds.
In this study, pBR322 plasmid DNA is formed of buffer solution (50 mM Tris-HCl (pH 7)), auxiliary reagents and increasing concentrations of compounds, such that well contents are of 10 µL. The oxidative nuclease activity studies were performed under light irradiation. At the end of this period, after mixtures are incubated in darkness at 37 °C for an hour, reaction is stopped by means of above-mentioned methods and cleavage products are observed on the agarose gel under UV light.
Subsequent to the determination of hydrolytic nuclease activities of the compounds 7a and 3a, cleavage reactions are carried out by way of adding hydrogen peroxide (H2O2) (0.4 M), ascorbic acid (AA) (2.5 mM) and mercaptoethanol (ME) (0.4 M) so as to examine its oxidative cleavage capabilities with/without irradiation and the related results are given in Figure 4.

Molecule | cell survival (photocytotoxicity) [1] [%] | CC50 [2] [nM] | hypochromism [3] [%] | red-shift [3] [nm] | CC50 [4] [nM] | hydrolytic nuclease activity [5] | competitive EB binding [6] | melting temperature of CT-DNA + compound [7] [°C] | topoisomerase I inhibition effect [8] | effect of singlet oxygen scavengers NaN3 and L-Histidine on cleavage [9] | CC50 [10] [nM] | CC50 [11] [nM] | CC50 [12] [nM] | nuclease activity under irradiation at 100 µM ([13]; in the presence of light, concentration of 100 µM) | nuclease activity under irradiation [13] | topoisomerase II inhibition effect [14] | oxidative cleavage activity [15]
c1ccc(C(O[Si]2(OC(c3ccccc3)(c3ccccc3)c3ccncc3)n3c4c5ccccc5c3N=C3N=C(N=c5c6ccccc6c(n52)=NC2=NC(=N4)c4ccccc42)c2ccccc23)(c2ccccc2)c2ccncc2)cc1 [compound 3, axially di-(alpha,alpha-diphenyl-4-pyridylmethoxy) silicon(IV) phthalocyanine] | 17 | – | – | – | – | – | – | – | – | – | – | – | – | – | – | – | –
bis(3,5-bis{3-[3-trimethylamino)phenoxy]propoxy}phenyl)methoxy)phthalocyaninato silicon (IV) Iodide [3a] | – | 2240 | 25.40 | 6 | 3960 | observed for the compound 3a depending on the concentration | compete with EB so as to bind with CT-DNA | 81.82 | supercoiled form rate increases | prevent the cleavage | 1470 | 860 | 4630 | destroys pBR322 plasmid DNA completely | exhibits the nuclease activity depending on the concentration | – | –
bis(3,5-bis{3-[3-(diethylmethylamino)phenoxy]propoxy}phenyl)methoxy)phthalocyaninato silicon (IV) Iodide [7a] | – | 1180 | 43.64 | 6 | 1440 | observed for the compound 7a depending on the concentration | compete with EB so as to bind with CT-DNA | – | supercoiled form rate increases | – | 1130 | 490 | 2990 | – | exhibits the nuclease activity depending on the concentration | Effective results are observed compared to doxorubicin | significantly high cleavage activity
